Literature values as cited in PMC6915728 (Nature Communications, 2019).
Where two headings read alike, the source gives them in different places.

Tested on: AMP-evolved E. coli lines
Details: ref Spohn et al 2019, cited from earlier work
Excerpt: Supplement 41467_2019_13618_MOESM13_ESM.xlsx, sheet "Figure 6 and S15" | column: A comprehensive dataset of antimicrobial susceptibility of AMP-adapted lines to antimicrobial peptides (AMPs).

Sequence | Relative change in MIC (MIC of the AMP-adpated line / MIC of the ancestral strain) (AMP-adapted line BAC5_3) | Relative change in MIC (MIC of the AMP-adpated line / MIC of the ancestral strain) (AMP-adapted line BAC5_5) | Relative change in MIC (MIC of the AMP-adpated line / MIC of the ancestral strain) (AMP-adapted line BAC5_7) | Relative change in MIC (MIC of the AMP-adpated line / MIC of the ancestral strain) (AMP-adapted line BAC5_10) | Relative change in MIC (MIC of the AMP-adpated line / MIC of the ancestral strain) (AMP-adapted line CAP18_2) | Relative change in MIC (MIC of the AMP-adpated line / MIC of the ancestral strain) (AMP-adapted line CAP18_5) | Relative change in MIC (MIC of the AMP-adpated line / MIC of the ancestral strain) (AMP-adapted line CAP18_6) | Relative change in MIC (MIC of the AMP-adpated line / MIC of the ancestral strain) (AMP-adapted line CAP18_8) | Relative change in MIC (MIC of the AMP-adpated line / MIC of the ancestral strain) (AMP-adapted line CAP18_10) | Relative change in MIC (MIC of the AMP-adpated line / MIC of the ancestral strain) (AMP-adapted line HBD3_3) | Relative change in MIC (MIC of the AMP-adpated line / MIC of the ancestral strain) (AMP-adapted line HBD3_6) | Relative change in MIC (MIC of the AMP-adpated line / MIC of the ancestral strain) (AMP-adapted line HBD3_8) | Relative change in MIC (MIC of the AMP-adpated line / MIC of the ancestral strain) (AMP-adapted line HBD3_10) | Relative change in MIC (MIC of the AMP-adpated line / MIC of the ancestral strain) (AMP-adapted line PEX_1) | Relative change in MIC (MIC of the AMP-adpated line / MIC of the ancestral strain) (AMP-adapted line PEX_4) | Relative change in MIC (MIC of the AMP-adpated line / MIC of the ancestral strain) (AMP-adapted line PEX_5) | Relative change in MIC (MIC of the AMP-adpated line / MIC of the ancestral strain) (AMP-adapted line PEX_6) | Relative change in MIC (MIC of the AMP-adpated line / MIC of the ancestral strain) (AMP-adapted line PEX_7) | Relative change in MIC (MIC of the AMP-adpated line / MIC of the ancestral strain) (AMP-adapted line PR39_1) | Relative change in MIC (MIC of the AMP-adpated line / MIC of the ancestral strain) (AMP-adapted line PR39_2) | also measured
LLGDFFRKSKEKIGKEFKRIVQRIKDFLRNLVPRTES [LL37, LL-37 human cathelicidin, human host-defense peptide; disrupts cell membrane; cluster C2] | 1 | 1.2 | 1.1 | 1.1 | 6.3 | 3.7 | 1.2 | 6.3 | 8.2 | 1.7 | 1.2 | 1.7 | 1.7 | 1.1 | 16 | 0.9 | 1 | 1 | 1.2 | 1.2 | Relative change in MIC (MIC of the AMP-adpated line / MIC of the ancestral strain) (AMP-adapted line PR39_5): 0.9; Relative change in MIC (MIC of the AMP-adpated line / MIC of the ancestral strain) (AMP-adapted line PR39_7): 1; Relative change in MIC (MIC of the AMP-adpated line / MIC of the ancestral strain) (AMP-adapted line PR39_10): 0.8; Relative change in MIC (MIC of the AMP-adpated line / MIC of the ancestral strain) (AMP-adapted line PROA_2): 1; Relative change in MIC (MIC of the AMP-adpated line / MIC of the ancestral strain) (AMP-adapted line PROA_3): 0.8; Relative change in MIC (MIC of the AMP-adpated line / MIC of the ancestral strain) (AMP-adapted line PROA_7): 0.9; Relative change in MIC (MIC of the AMP-adpated line / MIC of the ancestral strain) (AMP-adapted line PROA_8): 1; Relative change in MIC (MIC of the AMP-adpated line / MIC of the ancestral strain) (AMP-adapted line PROA_9): 0.9; Relative change in MIC (MIC of the AMP-adpated line / MIC of the ancestral strain) (AMP-adapted line PXB_2): 1; Relative change in MIC (MIC of the AMP-adpated line / MIC of the ancestral strain) (AMP-adapted line PXB_5): 0.9; Relative change in MIC (MIC of the AMP-adpated line / MIC of the ancestral strain) (AMP-adapted line PXB_6): 1; Relative change in MIC (MIC of the AMP-adpated line / MIC of the ancestral strain) (AMP-adapted line PXB_8): 1; Relative change in MIC (MIC of the AMP-adpated line / MIC of the ancestral strain) (AMP-adapted line PXB_10): 1
ILPWKWPWWPWRR [IND, Indolicidin, antimicrobial peptide from bovine neutrophils; cluster C3] | 1.2 | 0.8 | 0.9 | 1 | 1 | 0.6 | 0.6 | 1 | 0.8 | 1.3 | 1 | 0.8 | 1.2 | 1 | 1.4 | 1 | 1 | 1.2 | 1.1 | 1 | Relative change in MIC (MIC of the AMP-adpated line / MIC of the ancestral strain) (AMP-adapted line LL37_1): 0.8; Relative change in MIC (MIC of the AMP-adpated line / MIC of the ancestral strain) (AMP-adapted line LL37_3): 0.8; Relative change in MIC (MIC of the AMP-adpated line / MIC of the ancestral strain) (AMP-adapted line LL37_6): 0.6; Relative change in MIC (MIC of the AMP-adpated line / MIC of the ancestral strain) (AMP-adapted line LL37_7): 1; Relative change in MIC (MIC of the AMP-adpated line / MIC of the ancestral strain) (AMP-adapted line LL37_10): 0.8; Relative change in MIC (MIC of the AMP-adpated line / MIC of the ancestral strain) (AMP-adapted line PR39_5): 1.3; Relative change in MIC (MIC of the AMP-adpated line / MIC of the ancestral strain) (AMP-adapted line PR39_7): 0.9; Relative change in MIC (MIC of the AMP-adpated line / MIC of the ancestral strain) (AMP-adapted line PROA_2): 1.1; Relative change in MIC (MIC of the AMP-adpated line / MIC of the ancestral strain) (AMP-adapted line PROA_3): 0.8; Relative change in MIC (MIC of the AMP-adpated line / MIC of the ancestral strain) (AMP-adapted line PROA_7): 0.8; Relative change in MIC (MIC of the AMP-adpated line / MIC of the ancestral strain) (AMP-adapted line PROA_8): 1.1; Relative change in MIC (MIC of the AMP-adpated line / MIC of the ancestral strain) (AMP-adapted line PROA_9): 1; Relative change in MIC (MIC of the AMP-adpated line / MIC of the ancestral strain) (AMP-adapted line PXB_2): 2.1; Relative change in MIC (MIC of the AMP-adpated line / MIC of the ancestral strain) (AMP-adapted line PXB_5): 3; Relative change in MIC (MIC of the AMP-adpated line / MIC of the ancestral strain) (AMP-adapted line PXB_6): 3; Relative change in MIC (MIC of the AMP-adpated line / MIC of the ancestral strain) (AMP-adapted line PXB_8): 2.7; Relative change in MIC (MIC of the AMP-adpated line / MIC of the ancestral strain) (AMP-adapted line PXB_10): 1.6
